# Data from patent US8129359B2, “Composition and method for treating post-surgical pain” (Ethicon, Inc., priority 2004, dated 2012).
# Entries after “also recorded” stand apart in the source; their conditions may differ. Structures can show the parent of a compound that is named as a salt.
# Key:
# [1] = Pharmacokinetic evaluation of diclofenac release in a rat model (plasma and incision-site tissue, LC/MS/MS); type: in vivo
# Method: Pharmacokinetic studies in a rat model were conducted to determine the rate of diclofenac release from the composition. Male Sprague Dawley rats (four rats per time point per group) were anesthetized with isoflurane and subjected to a single surgical incision on the plantar surface of the left hind paw. The medial tendon was exposed by blunt dissection and subjected to a 20 second clamp using a mosquito hemostat.
# In Group 1 the incision was sutured closed following manipulation of the tendon. The rats were administered an intraperitoneal injection of 5 mg/kg Diclofenac (as sodium salt, saline vehicle) 4 hours and 23 hours post-surgery. Blood and tissue samples were harvested at 0.25, 1, 4 and 6 hours after the second dose.
# In Group 2, oxidized regenerated cellulose (Surgicel® Fibrillar absorbable hemostat) was implanted between the tendon and the metatarsals and 0.5 mg of Diclofenac (as sodium salt, saline vehicle) was instilled directly into the wound site and the incision was sutured closed. Blood samples were taken at 0.25,1, 4, 6, 24 and 48 hours post surgery.
# Blood was harvested into K-EDTA tubes via cardiac puncture while the rats were anesthetized with isoflurane. Rats were terminated immediately after the blood draw by CO2 inhalation, and the skin, muscle fascia and tendon of the left hind paw incision site were harvested. The contralateral tissue of the right hind paw was harvested and retained separately.
# Blood samples were centrifuged to yield plasma, the resulting plasma as well as tissue samples were sent to Covance, Madison Wis. for LC/MS/MS analysis of diclofenac. Briefly, the analytical method involves extracting ˜50 mg of tissue or 50 uL of plasma w/acetonitrile; the residue of the ACN extract is analyzed by tandem mass spectroscopy. The dynamic ranges of the plasma and tissue assays were 25 to 12,500 ng/mL and 25 to 12,500 ng/g, respectively.
# Male Sprague Dawley rats = test: Brennan surgical pain model (mechanical allodynia by von Frey filaments, mechanical hyperalgesia by pin-prick test); type: in vivo, rat; conditions: for Efficacy for reduction of post-surgical pain at a surgical wound site: in the oxidized regenerated cellulose-based system, MPE greater than 30 percent considered efficacious
# Method: In order to evaluate the analgesic efficacy of the composition containing oxidized regenerated cellulose particles dry blended with an NSAID powder (diclofenac sodium), the Brennan surgical pain model was used (Characterization of a rat model of incisional pain, Brennan, T. J., et al., Pain: 64 (1996); 493-501). The model was performed as follows. Male Sprague Dawley rats weighing 250-300 grams were used throughout the experiment. Prior to surgery, each animal was habituated to the testing environment and a baseline response to Semmes-Weinstein (von Frey) filaments was established. Animals were anesthetized using a fresh mixture of xylazine and ketamine containing 100 mg ketamine/ml and 20 mg xylazine/ml. Each animal was injected intramuscularly with 1 ml/kg to achieve surgical anesthesia. The left hind paw was aseptically prepared and a 1 cm incision through the skin and fascia was made on the plantar surface of the hind paw, extending from the ankle distally. The middle digital tendon was isolated and crushed using mosquito hemostats for 20 seconds. Following surgery animals were tested for mechanical sensitivity at 4, 24, 48, 72 and 96 hours following surgery.
# Ten rats were evaluated in each of the following groups:
# Group 1. Control group: all animals were given intraperitoneal (IP) injections of saline (1 ml/kg) 1 hour before testing for mechanical allodynia and hyperalgesia.
# This equates to a total of 1 mg of diclofenac sodium or approximately 4 mg/kg for a 250 g animal.
# Group 3: Immediately post-tendon crush, a single dose (20 mg of micronized oxidized regenerated cellulose with an approximate particle size of 20-25 microns blended with […]) was mixed with 100 microliters of a sterile saline solution. The composition was then applied to the site of the crushed tendon.
# This equates to a total of 0.5 mg of diclofenac sodium or approximately 2 mg/kg for a 250 g animal. […]
# This equates to a total of 2.0 mg of diclofenac sodium or approximately 8 mg/kg for a 250 g animal.
# The pin-prick test was used to assess mechanical hyperalgesia. Briefly, a blunted safety pin was used to gently tent the plantar skin of each hind paw without breaking the skin. A stopwatch was used to measure the withdrawal time following this stimulus. Increased withdrawal time (in seconds) was interpreted as mechanical hyperalgesia.
# Mechanical sensitivity or mechanical allodynia from each time point was normalized against the negative control group and against each individual animal's pre-surgical mechanical sensitivity. Mechanical sensitivity was assessed using a procedure described by Chaplan et al. (J. Neurosci. Methods 1994, 53: 55-63). A series of von Frey filaments of varying rigidity strength (typically eight filaments in the series) were applied to the plantar surface of the hind paw ipsilateral to the ligations with just enough force to bend the filament. […] A positive allodynic response consists of lifting the affected paw followed immediately by licking or shaking of the paw. The order and frequency with which the filaments were applied was determined using the Dixon up-down method. Testing was initiated with the middle filament of the series with subsequent filaments being applied in consecutive fashion, ascending or descending, depending on whether a negative or positive response, respectively, was obtained with the initial filament.
# Results are expressed as percent of Maximal Potential Efficacy (% MPE).
# [2] = Micronized (20–25 um) oxidized regenerated cellulose, dry/powder, 1 mg
# [3] = Surgicel Fibrillar absorbable hemostat 6 × 6 mm, solution, 0.5 mg
# [4] = Surgicel Fibrillar absorbable hemostat 6 × 6 mm, solution, 1.0 mg
structure (smiles),measurement,setting,value
"O=C(O)Cc1ccccc1Nc1c(Cl)cccc1Cl [DCF Free acid, 2-((2,6-ichlorophenyl)amino)benzeneacetic acid]",Diclofenac concentrations at the surgical site,"[1]; after local administration of composition containing oxidized regenerated cellulose and diclofenac, FIG. 3A",remaining relatively high; also recorded: remained relatively high
same,Tissue concentrations of diclofenac,"[1]; intraperitoneal injection of diclofenac solution, FIG. 3A",rapid decline
same,"Plasma concentrations of diclofenac, local administration compared with systemic administration","[1]; local administration from the composition, FIG. 3B",much lower
same,Efficacy for reduction of post-surgical pain at a surgical wound site,Male Sprague Dawley rats,surprisingly efficacious
"O=C(O)Cc1ccccc1Nc1c(Cl)cccc1Cl [DCF Sol'n, 2-[(2,6-dichlorophenyl)amino]-Benzeneacetic acid, monosodium salt]",Period of analgesia,Male Sprague Dawley rats; 6 mm×6 mm Surgicel Fibrillar oxidized regenerated cellulose plus diclofenac sodium and saline,48 h
same,Benefit at 72 hours,"Male Sprague Dawley rats; 6 mm×6 mm Surgicel Fibrillar oxidized regenerated cellulose plus diclofenac sodium and saline, 72 hours",smaller benefit
same,Efficacy (duration of analgesic effect),"Male Sprague Dawley rats; Interceed absorbable adhesion barrier 6 × 6 mm, solution, 0.5 mg",48 h
same,Efficacy (duration of analgesic effect),"Male Sprague Dawley rats; Intraplantar injection, solution, 0.5 mg",4 h
same,Efficacy (duration of analgesic effect),Male Sprague Dawley rats; [2],72 h
same,Efficacy (duration of analgesic effect),"Male Sprague Dawley rats; Micronized (20–25 um) oxidized regenerated cellulose, solution, 1.0 mg, applied at crushed tendon",72 h
same,"Significant increase in analgesic effect, through",Male Sprague Dawley rats; Micronized oxidized regenerated cellulose (20-25 micron) mixed with diclofenac sodium and saline,72 h
same,Effect at 96 hours,"Male Sprague Dawley rats; Micronized oxidized regenerated cellulose (20-25 micron) mixed with diclofenac sodium and saline, 96 hours",some effect
same,Efficacy (duration of analgesic effect),"Male Sprague Dawley rats; Repeated IPL injec., solution, 0.5 mg",4 h
same,Efficacy (duration of analgesic effect),Male Sprague Dawley rats; [3],48 h
same,Efficacy (duration of analgesic effect),Male Sprague Dawley rats; [4],48 h
"COc1ccc2c(c1)c(CC(=O)O)c(C)n2C(=O)c1ccc(Cl)cc1 [Inodmethacin Sol'n, indomethacin]",Efficacy (duration of analgesic effect),Male Sprague Dawley rats; [3],Ineffective
same,Efficacy for reduction of post-surgical pain at a surgical wound site,Male Sprague Dawley rats,neither indomethacin nor ketoprofen is efficacious
"CC(C(=O)O)c1cccc(C(=O)c2ccccc2)c1 (stereo not drawn) [Ketoprofen Sol'n, ketoprofen]",Efficacy (duration of analgesic effect),Male Sprague Dawley rats; [3],Ineffective
same,Efficacy for reduction of post-surgical pain at a surgical wound site,Male Sprague Dawley rats,neither indomethacin nor ketoprofen is efficacious
"Cc1cccc(C)c1NC(=O)C1CCCCN1C (stereo not drawn) [Mepiv Sol'n, mepivacaine hydrochloride]",Efficacy (duration of analgesic effect),"Male Sprague Dawley rats; Intraplantar injection, solution, 1.0 mg",4 h
same,Efficacy (duration of analgesic effect),Male Sprague Dawley rats; [2],Ineffec-
same,Efficacy (duration of analgesic effect),"Male Sprague Dawley rats; Repeated IPL injec., solution, 1.0 mg",72+ Hrs
same,Efficacy (duration of analgesic effect),Male Sprague Dawley rats; [4],4 Hrs effect
"COc1cccc(C2(O)CCCCC2CN(C)C)c1 (stereo not drawn) [Tramadol Sol'n, tramadol]",Efficacy (duration of analgesic effect),"Male Sprague Dawley rats; Surgicel Fibrillar absorbable hemostat 6 × 6 mm, solution, 2 mg",24 h
